Assay results published in ChEMBL document CHEMBL5214910, “Rational Design of Dipicolylamine-Containing Carbazole Amphiphiles Combined with Zn2+ as Potent Broad-Spectrum Antibacterial Agents with a Membrane-Disruptive Mechanism” (J Med Chem, 2021).
Values after ≈ are worked out from the molar mass of the structure shown. Active and inactive are the calls of the source. No cut-off for these calls is given here.

How the values were obtained:
[1] = tested on: Staphylococcus aureus; experiment: Antibacterial activity against Staphylococcus aureus ATCC 29213 assessed as inhibition of bacterial growth incubated for 24 hrs in the presence of 50 ug/mL Zn2+ by Muller hinton broth based dilution assay; type: functional
[2] = tested on: Staphylococcus aureus; experiment: Antibacterial activity against Staphylococcus aureus ATCC 29213 assessed as inhibition of bacterial growth incubated for 24 hrs in the presence of […] ug/mL Zn2+ by Muller hinton broth based dilution assay; type: functional
[3] = tested on: Escherichia coli; experiment: Antibacterial activity against Escherichia coli ATCC 25922 assessed as log reduction in bacterial count at 4 times of MIC incubated for 1 hrs in the presence of 12.5 ug/ml Zn2+ by Muller hinton agar based time kill assay; type: functional
[4] = Hemolytic activity in rabbit RBC incubated for 1 hrs by fluorescence based microplate reader assay; type: toxicity, cell-based, Oryctolagus cuniculus, Erythrocyte; conditions: rabbit red blood cells (erythrocytes)
[5] = Cytotoxicity against mouse NCTC clone 929 cells assessed as reduction in cell survival at 16 times to 32 times of MIC incubated for 24 hrs in the presence of 12.5 ug/ml of Zn2+ by CCK8 assay relative to control; type: toxicity, cell-based; conditions: nctc clone 929, 24 h
[6] = tested on: Cell membrane; experiment: Induction of outer membrane permeabilization in Escherichia coli ATCC 25922 assessed as increase in fluorescence intensity at 2 times to 8 times MIC measured for 1 hrs in the presence of 12.5 ug/ml Zn2+ by NPN uptake assay; conditions: DDE = dose-dependent effect
[7] = tested on: Escherichia coli; experiment: Antibacterial activity against Escherichia coli ATCC 25922 assessed as inhibition of bacterial growth by measuring salt resistance incubated for 24 hrs in the presence of 12.5 ug/ml Zn2+ and 24.3 ug/ml Mg2+ by Muller hinton broth based dilution assay; type: functional
[8] = tested on: Acinetobacter baumannii; experiment: Antibacterial activity against Acinetobacter baumannii ATCC 17978 assessed as inhibition of bacterial growth by measuring salt resistance incubated for 24 hrs in the presence of 12.5 ug/ml Zn2+ and 24.3 ug/ml Mg2+ by Muller hinton broth based dilution assay; type: functional
[9] = tested on: Cell membrane; experiment: Induction of cell membrane […] in Escherichia coli ATCC 25922 assessed as increase in fluorescence intensity at 2 times to 8 times of MIC measured for 1 hrs in the presence of 12.5 ug/ml Zn2+ by […] dye based assay; type: subcellular
[10] = tested on: Pseudomonas aeruginosa; experiment: Antibacterial activity Pseudomonas aeruginosa ATCC 9027 assessed as inhibition of bacterial growth incubated for 24 hrs in the presence of 0.39 ug/mL Zn2+ by Muller hinton broth based dilution assay; type: functional
[11] = tested on: Staphylococcus aureus; experiment: Antibacterial activity against Staphylococcus aureus ATCC 29213 assessed as inhibition of bacterial growth incubated for 24 hrs in the presence of 0.39 ug/mL Zn2+ by Muller hinton broth based dilution assay; type: functional
[12] = tested on: Acinetobacter baumannii; experiment: Antibacterial activity against Acinetobacter baumannii ATCC 17978 assessed as inhIbition of bacterial growth incubated for 24 hrs in the presence of 12.5 ug/mL Zn2+ by Muller hinton broth based dilution assay; type: functional
[13] = tested on: Staphylococcus aureus; experiment: Antibacterial activity against Methicillin-resistant Staphylococcus aureus N315 assessed as inhibition of bacterial growth by measuring salt resistance incubated for 24 hrs in the presence of 12.5 ug/ml Zn2+ and 100 ug/ml Ca2+ by Muller hinton broth based dilution assay; type: functional
[14] = tested on: Escherichia coli; experiment: Antibacterial activity against Escherichia coli ATCC 25922 assessed as inhibition of bacterial growth by measuring salt resistance incubated for 24 hrs in the presence of 12.5 ug/ml Zn2+ and 3220 ug/ml Na+ by Muller hinton broth based dilution assay; type: functional
[15] = tested on: Pseudomonas aeruginosa; experiment: Antibacterial activity against Pseudomonas aeruginosa ATCC 9027 in C57BL/6 mouse model of bacterial keratitis assessed as log reduction in viable bacterial count in infected cornea at 0.5 % pre-infected with bacteria for 24 hrs followed by topical administration of compound four times a day for 3 days in the presence of 12.5 ug/ml of Zn2+; type: functional; conditions: route top, time 3 day
[16] = tested on: Pseudomonas aeruginosa; experiment: Antibacterial activity Pseudomonas aeruginosa ATCC 9027 assessed as inhibition of bacterial growth incubated for 24 hrs in the presence of 12.5 ug/mL Zn2+ by Muller hinton broth based dilution assay; type: functional
[17] = tested on: Staphylococcus aureus; experiment: Antibacterial activity against Methicillin-resistant Staphylococcus aureus NCTC10442 assessed as inhibition of bacterial growth incubated for 24 hrs by Muller hinton broth based dilution assay; type: functional
[18] = tested on: Escherichia coli; experiment: Antibacterial activity Escherichia coli ATCC 25922 assessed as inhibition of bacterial growth incubated for 24 hrs in the presence of 6.25 ug/mL Zn2+ by Muller hinton broth based dilution assay; type: functional
[19] = tested on: Lipopolysaccharide (LPS); experiment: Displacement of BODIPY-TR-cadaverin from Pseudomonas aeruginosa Lipopolysaccharide at 2 times of MIC incubated for 30 mins in the presence of 12.5 ug/ml Zn2+ by fluorescence based microplate reader analysis relative to control
[20] = tested on: Lipopolysaccharide (LPS); experiment: Displacement of BODIPY-TR-cadaverin from Pseudomonas aeruginosa Lipopolysaccharide at 4 times of MIC incubated for 30 mins by fluorescence based microplate reader analysis relative to control
[21] = tested on: Lipopolysaccharide (LPS); experiment: Displacement of BODIPY-TR-cadaverin from Pseudomonas aeruginosa Lipopolysaccharide at 2 times of MIC incubated for 30 mins by fluorescence based microplate reader analysis relative to control
[22] = tested on: Acinetobacter baumannii; experiment: Antibacterial activity against Acinetobacter baumannii ATCC 17978 assessed as inhibition of bacterial growth by measuring salt resistance incubated for 24 hrs in the presence of 12.5 ug/ml Zn2+ and 175.5 ug/ml K+ by Muller hinton broth based dilution assay; type: functional
[23] = Ratio of MIC for antibacterial activity against Acinetobacter baumannii R2889 to MIC for antibacterial activity against Acinetobacter baumannii R2889 in the presence of Zn2+; type: functional
[24] = Ratio of MIC for antibacterial activity against Escherichia coli ATCC 25922 to MIC for antibacterial activity against Escherichia coli ATCC 25922 in the presence of Zn2+; type: functional
[25] = tested on: Lipopolysaccharide (LPS); experiment: Displacement of BODIPY-TR-cadaverin from Pseudomonas aeruginosa Lipopolysaccharide at 1 times of MIC incubated for 30 mins by fluorescence based microplate reader analysis relative to control
[26] = tested on: Lipopolysaccharide (LPS); experiment: Displacement of BODIPY-TR-cadaverin from Pseudomonas aeruginosa Lipopolysaccharide at 1 times of MIC incubated for 30 mins in the presence of 12.5 ug/ml Zn2+ by fluorescence based microplate reader analysis relative to control
[27] = tested on: Staphylococcus aureus; experiment: Antibacterial activity against Methicillin-resistant Staphylococcus aureus N315 assessed as inhibition of bacterial growth incubated for 24 hrs in the presence of 12.5 ug/mL Zn2+ by Muller hinton broth based dilution assay; type: functional
[28] = tested on: Staphylococcus aureus; experiment: Antibacterial activity against Staphylococcus aureus ATCC 29213 assessed as inhibition of bacterial growth by measuring salt resistance incubated for 24 hrs in the presence of 12.5 ug/ml Zn2+ and 100 ug/ml Ca2+ by Muller hinton broth based dilution assay; type: functional
[29] = tested on: Staphylococcus aureus; experiment: Antibacterial activity against Methicillin-resistant Staphylococcus aureus NCTC10442 assessed as inhibition of bacterial growth by measuring salt resistance incubated for 24 hrs in the presence of 12.5 ug/ml Zn2+ and 100 ug/ml Ca2+ by Muller hinton broth based dilution assay; type: functional

## CC(C)=CCn1c2ccccc2c2c(OCC(O)CN(Cc3ccccn3)Cc3ccccn3)cccc21 (centres undefined)
[1]
  MIC: 0.78 µg/mL
[2]
  MIC: 3.12 µg/mL
[3]
  log(activity): 2.91
[4]
  HC50 at 1 h: > 200 µg/mL
[5]
  Activity: 71.58%
[6]
  Activity: Dde
[7]
  MIC: 3.12 µg/mL
[8]
  MIC: 1.56 µg/mL
[9]
  Activity: Active
[10]
  MIC: > 50 µg/mL
[11]
  MIC: 3.12 µg/mL
[12]
  MIC: 0.78 µg/mL
[13]
  MIC: 3.12 µg/mL
[14]
  MIC: 3.12 µg/mL
[15]
  log(activity): 4.46
[16]
  MIC: 3.12 µg/mL
[17]
  MIC: 1.56 µg/mL (≈ 3.08 µM)
[18]
  MIC: 1.56 µg/mL
[19]
  Activity: 39.1%
[20]
  Activity: -0.56%
[21]
  Activity: 0.19%
[22]
  MIC: 0.78 µg/mL
[23]
  Ratio: 2
[24]
  Ratio: 2
[25]
  Activity: -0.28%
[26]
  Activity: 20.8%
[27]
  MIC: 0.78 µg/mL
[28]
  MIC: 3.12 µg/mL
[29]
  MIC: 3.12 µg/mL
